Experimental data from patent publication US10316017B2, “COT modulators and methods of use thereof” (Gilead Sciences, Inc., priority 2015, dated 2019).

Key:
[1] = tested on: TNFα production in LPS-stimulated human monocytes; assay: Cot Monocyte TNFα Cell Based Assay; conditions: Homo sapiens, Monocyte, TNFα in LPS-stimulated human monocytes; read-out: EC50 TNF
How it was run: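 TNFα release quantified by two-antibody TR-FRET, normalised to unstimulated (0%) and LPS-stimulated (100%) wells. Cells got a 1 h compound exposure at 37° C in 0.5% DMSO before 4 h challenge with 50 pg/ml LPS, at 5,000 cells/well.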

[2] = biological target: T1, human Cot catalytic domain (30-397 amino acids) (Homo sapiens, UniProt P41279); assay: High Throughput Cot Biochemical Assay (KinEASE TR-FRET); conditions: Cot KinEASE TR-FRET (HTRF) biochemical assay, 400 μM ATP; read-out: IC50 HTRF
T1 construct: Purified recombinant human Cot catalytic domain (30-397 amino acids) was purchased from Cama Biosciences; purchased Cama Biosciences (so in the source)
How it was run: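 TR-FRET (KinEASE) read-out: Eu-labelled phospho-specific antibody binds XL665-tagged STK3 peptide (1 μM) phosphorylated by 5 nM human Cot kinase domain (residues 30-397). Reaction at 400 μM ATP, pH 7.0 MOPS buffer with 10 mM MgOAc, 1 mM DTT and 0.1% DMSO.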

T1 sequence (P41279 30-397): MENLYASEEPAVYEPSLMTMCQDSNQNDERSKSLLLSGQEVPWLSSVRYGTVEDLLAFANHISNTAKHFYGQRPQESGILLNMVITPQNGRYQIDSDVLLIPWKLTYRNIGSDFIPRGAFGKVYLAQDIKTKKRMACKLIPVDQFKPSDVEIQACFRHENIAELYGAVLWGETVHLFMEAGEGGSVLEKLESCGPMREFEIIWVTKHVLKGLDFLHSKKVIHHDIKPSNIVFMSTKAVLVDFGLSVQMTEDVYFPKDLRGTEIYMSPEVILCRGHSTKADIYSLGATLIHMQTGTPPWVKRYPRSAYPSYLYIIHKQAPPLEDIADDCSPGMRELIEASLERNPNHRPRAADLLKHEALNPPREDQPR

EC50 [1] [nM]	IC50 [2] [nM]	Structure (SMILES)
424	16	N#Cc1cnc2c(Cl)cc(N[C@@H](c3cccc(Cl)c3)c3cn(C4CC4)nn3)cc2c1Nc1cnc(F)c(F)c1 [Example 266, (S)-8-chloro-6-(((3-chlorophenyl)(1-cyclopropyl-1H-1,2,3-triazol-4-yl)methyl)amino)-4-((5,6-difluoropyridin-3-yl)amino)quinoline-3-carbonitrile]
194	7	[2H][C@](Nc1cc(Cl)c2ncc(C#N)c(NC(CC#N)c3ccccc3)c2c1)(c1ccc(F)cc1)c1cn(-c2cccnc2)nn1 (stereo partly drawn) [Example 267, 8-chloro-4-((2-cyano-1-phenylethyl)amino)-6-(((S)-(4-fluorophenyl)(1-(pyridin-3-yl)-1H-1,2,3-triazol-4-yl)methyl-d)amino)quinoline-3-carbonitrile]
2890	166	[2H][C@](Nc1cc(Cl)c2ncc(C#N)c(NCCC(C)C)c2c1)(c1ccc(F)cc1)c1cn(C2CC2)nn1 [Example 268, (S)-8-chloro-6-(((1-cyclopropyl-1H-1,2,3-triazol-4-yl)(4-fluorophenyl)methyl-d)amino)-4-(isopentylamino)quinoline-3-carbonitrile]
4520	253	[2H][C@](Nc1cc(Cl)c2ncc(C#N)c(NCCC3CC3)c2c1)(c1ccc(F)cc1)c1cn(C2CC2)nn1 [Example 269, (S)-8-chloro-6-(((1-cyclopropyl-1H-1,2,3-triazol-4-yl)(4-fluorophenyl)methyl-d)amino)-4-((2-cyclopropylethyl)amino)quinoline-3-carbonitrile]
2280	96	[2H][C@](Nc1cc(Cl)c2ncc(C#N)c(NCCc3ccccn3)c2c1)(c1ccc(F)cc1)c1cn(C2CC2)nn1 [Example 270, (S)-8-chloro-6-(((1-cyclopropyl-1H-1,2,3-triazol-4-yl)(4-fluorophenyl)methyl-d)amino)-4-((2-(pyridin-2-yl)ethyl)amino)quinoline-3-carbonitrile]
4560	434	[2H][C@](Nc1cc(Cl)c2ncc(C#N)c(NCCc3cccnc3)c2c1)(c1ccc(F)cc1)c1cn(C2CC2)nn1 [Example 271, (S)-8-chloro-6-(((1-cyclopropyl-1H-1,2,3-triazol-4-yl)(4-fluorophenyl)methyl-d)amino)-4-((2-(pyridin-3-yl)ethyl)amino)quinoline-3-carbonitrile]
215	12	CC[C@@H](Nc1c(C#N)cnc2c(Cl)cc(N[C@@H](c3cccc(F)c3)c3cn(C4CC4)nn3)cc12)c1ccccc1 [Example 272, 8-chloro-6-(((S)-(1-cyclopropyl-1H-1,2,3-triazol-4-yl)(3-fluorophenyl)methyl)amino)-4-(((R)-1-phenylpropyl)amino)quinoline-3-carbonitrile]
178	13	CC[C@@H](Nc1c(C#N)cnc2c(Cl)cc(N[C@@H](c3cccc(Cl)c3)c3cn(C4CC4)nn3)cc12)c1ccccc1 [Example 273, 8-chloro-6-(((S)-(3-chlorophenyl)(1-cyclopropyl-1H-1,2,3-triazol-4-yl)methyl)amino)-4-(((R)-1-phenylpropyl)amino)quinoline-3-carbonitrile]
254	5	[2H][C@](Nc1cc(Cl)c2ncc(C#N)c(Nc3cccc(Cl)c3)c2c1)(c1cccc(C#N)c1)c1cn(C2CC2)nn1 [Example 274, (S)-8-chloro-4-((3-chlorophenyl)amino)-6-(((3-cyanophenyl)(1-cyclopropyl-1H-1,2,3-triazol-4-yl)methyl-d)amino)quinoline-3-carbonitrile]
246	23	[2H][C@](Nc1cc(Cl)c2ncc(C#N)c(Nc3c(F)ccc(Cl)c3F)c2c1)(c1cccc(C#N)c1)c1cn(C2CC2)nn1 [Example 275, (S)-8-chloro-4-((3-chloro-2,6-difluorophenyl)amino)-6-(((3-cyanophenyl)(1-cyclopropyl-1H-1,2,3-triazol-4-yl)methyl-d)amino)quinoline-3-carbonitrile]
166	3	[2H][C@](Nc1cc(Cl)c2ncc(C#N)c(NCC3(C)CCC3)c2c1)(c1cccc(C#N)c1)c1cn(C2CC2)nn1 [Example 276, (S)-8-chloro-6-(((3-cyanophenyl)(1-cyclopropyl-1H-1,2,3-triazol-4-yl)methyl-d)amino)-4-(((1-methylcyclobutyl)methyl)amino) quinoline-3-carbonitrile]
858	32	[2H][C@@](Nc1cc(Cl)c2ncc(C#N)c(NC3CC4CCC3CC4)c2c1)(c1ccc(F)cc1)c1cn(C2CC2)nn1 (stereo partly drawn) [Example 277, 4-(((1s,4s)-bicyclo[2.2.2]octan-2-yl)amino)-8-chloro-6-(((S)-(1-cyclopropyl-1H-1,2,3-triazol-4-yl)(4-fluorophenyl)methyl-d)amino)quinoline-3-carbonitrile]
8200	3050	[2H][C@](Nc1cc(Cl)c2ncc(C#N)c(N)c2c1)(c1ccc(F)cc1)c1cn(C2CC2)nn1 [Example 279, 4-amino-8-chloro-6-(((S)-(1-cyclopropyl-1H-1,2,3-triazol-4-yl)(4-fluorophenyl)methyl-d)amino)quinoline-3-carbonitrile]
1040	68	[2H][C@](Nc1cc(Cl)c2ncc(C#N)c(N[C@H](CC)c3cccc(C)c3)c2c1)(c1ccc(F)cc1)c1cn(C2CC2)nn1 [Example 281, 8-chloro-6-(((S)-(1-cyclopropyl-1H-1,2,3-triazol-4-yl)(4-fluorophenyl)methyl-d)amino)-4-(((R)-1-(m-tolyl)propyl)amino)quinoline-3-carbonitrile]
525	39	[2H][C@](Nc1cc(Cl)c2ncc(C#N)c(NC(C)(C)CC)c2c1)(c1ccc(F)cc1)c1cn(C2CC2)nn1 [Example 282, (S)-8-chloro-6-(((1-cyclopropyl-1H-1,2,3-triazol-4-yl)(4-fluorophenyl)methyl-d)amino)-4-(tert-pentylamino) quinoline-3-carbonitrile]
764	90	[2H][C@](Nc1cc(Cl)c2ncc(C#N)c(NC(C)(C)C)c2c1)(c1ccc(F)cc1)c1cn(C2CC2)nn1 [Example 283, (S)-4-(tert-butylamino)-8-chloro-6-(((1-cyclopropyl-1H-1,2,3-triazol-4-yl)(4-fluorophenyl)methyl-d)amino)quinoline-3-carbonitrile]
52	4	[2H][C@](Nc1cc(C#N)c2ncc(C#N)c(NCC(C)(C)C)c2c1)(c1ccc(F)cc1)c1cn(C2CC2)nn1 [Example 284, (S)-6-(((1-cyclopropyl-1H-1,2,3-triazol-4-yl)(4-fluorophenyl)methyl-d)amino)-4-(neopentylamino) quinoline-3,8-dicarbonitrile]
45	3	[2H][C@](Nc1cc(C#N)c2ncc(C#N)c(N[C@H](CC)c3ccccc3)c2c1)(c1ccc(F)cc1)c1cn(C2CC2)nn1 [Example 285, 6-(((S)-(1-cyclopropyl-1H-1,2,3-triazol-4-yl)(4-fluorophenyl)methyl-d)amino)-4-(((R)-1-phenylpropyl)amino) quinoline-3,8-dicarbonitrile]
140	10	[2H][C@](Nc1cc(Br)c2ncc(C#N)c(NCC(C)(C)C)c2c1)(c1ccc(F)cc1)c1cn(C2CC2)nn1 [Example 287, (S)-8-bromo-6-(((1-cyclopropyl-1H-1,2,3-triazol-4-yl)(4-fluorophenyl)methyl-d)amino)-4-(neopentylamino)quinoline-3-carbonitrile]
130	6	[2H][C@](Nc1cc(Br)c2ncc(C#N)c(N[C@H](CC)c3ccccc3)c2c1)(c1ccc(F)cc1)c1cn(C2CC2)nn1 [Example 288, 8-bromo-6-(((S)-(1-cyclopropyl-1H-1,2,3-triazol-4-yl)(4-fluorophenyl)methyl-d)amino)-4-(((R)-1-phenylpropyl)amino)quinoline-3-carbonitrile]
116	4	[2H][C@@](Nc1cc(Cl)c2ncc(C#N)c(NCC(C)(C)C)c2c1)(c1cn(C2CC2)nn1)c1cccc(C#N)c1Cl [Example 289, (S)-8-chloro-6-(((2-chloro-3-cyanophenyl)(1-cyclopropyl-1H-1,2,3-triazol-4-yl)methyl-d)amino)-4-(neopentylamino) quinoline-3-carbonitrile]
173	8	[2H][C@](Nc1cc(F)c2ncc(C#N)c(N[C@H](CC)c3ccccc3)c2c1)(c1ccc(F)cc1)c1cn(C2CC2)nn1 [Example 291, 6-(((S)-(1-cyclopropyl-1H-1,2,3-triazol-4-yl)(4-fluorophenyl)methyl-d)amino)-8-fluoro-4-(((R)-1-phenylpropyl)amino) quinoline-3-carbonitrile]
237	13	[2H][C@@](Nc1cc(Cl)c2ncc(C#N)c(N[C@H](CC)c3ccccc3)c2c1)(c1cn(C2CC2)nn1)c1cccc(C#N)c1Cl [Example 292, 8-chloro-6-(((S)-(2-chloro-3-cyanophenyl)(1-cyclopropyl-1H-1,2,3-triazol-4-yl)methyl-d)amino)-4-(((R)-1-phenylpropyl)amino)quinoline-3-carbonitrile]

Structure (SMILES)	EC50 [1] [nM]	IC50 [2] [nM]
[2H][C@](Nc1cc(Cl)c2ncc(C#N)c(NOC(C)(C)C)c2c1)(c1ccc(F)cc1)c1cn(C2CC2)nn1 [Example 280, (S)-4-(tert-butoxyamino)-8-chloro-6-(((1-cyclopropyl-1H-1,2,3-triazol-4-yl)(4-fluorophenyl)methyl-d)amino)quinoline-3-carbonitrile]	1470	228
